From patent publication US4925853A, “Benzimidazoles as 5-lipoxygenase inhibitors” (Beecham Group PLC, priority 1984, dated 1990) come the findings set out here.

The subject of assay [1] is development of arthritis in the rat adjuvant arthritis model. Kind of assay: Rat Adjuvant Arthritis Model (Method A). It counts as in vivo. As to conditions: 25 mg/kg (i.p.). On the procedure:
Rat Adjuvant Arthritis Model
The test is as described by Newbould, Brit. J. Pharmacol., 1963, 21, 127-136.
It is used to indicate anti-rheumatic activity as shown by inhibiting the development of arthritis in the rat adjuvant arthritis model. The compound of Example 1 is active at a concentration of 25 mg/kg (i.p.)

The test system of the next assay is 5-lipoxygenase enzyme. The assay is described as follows: RBL-1 5-Lipoxygenase Screen (Method B), cell free. It counts as biochemical. The note with it: 2 min. The method, then: RBL-1 5-Lipoxygenase Screen
5-Lipoxygenase enzyme was prepared as a 10,000 g supernatant from RBL-1 cells by the method of Jakschik [Jakschik, B. A., F. F. Sun, L. M. Lee, and M. M. Steinhoff, 1980, Biochem. Biophys. Res. Comm. 95, 103]. The 10,000 g supernatant was diluted with homogenization buffer to the equivalent of 1.5-2.5×10^7 cells. ml^-1 and made 2 mM with respect to CaCl2. Aliquots of 0.5 ml were then dispensed into tubes, and incubated at 29° C. with 5 μl ethanol or compound in ethanol at the desired concentration for 2 min. Then […] arachidonic acid was added in buffer to give final concentration of 6.3 μM and 0.2 μCi per incubation, and the reaction continued at 29° C. for 2 min. The reaction was terminated by adding 1 ml of acetone and cooling on ice, 0.5 ml of ice-cold saline and 10 μl of 2N formic acid were added, and the mixture was extracted with 2×2 ml of chloroform. The extract was stored under N2 at -20° C. until analysis by chromatography.
This test is used to show inhibition of the 5-lipoxygenase enzyme in a mammalian RBL-1 cell free 5-lipoxygenase assay.

Assay [2] relates to carrageenin-induced pleurisy in the rat. The assay is described as follows: Carrageenin-induced pleurisy in the rat (Method C). It counts as in vivo. As to conditions: 1 hour before and 24 and 48 hours after carrageenin. The method, then: CARRAGEENIN-INDUCED PLEURISY IN THE RAT This model of monocyte accumulation is based on the method of R. Vinegar, J. F. Truax, J. […] [Federation Proceedings 41, 2588-2595, 1982]. 0.2 ml of a 2.0% solution of λ-carrageenin (Viscarin 402) in saline was injected intrapleurally in anaesthetised rats (wt. approx. 175-200 g). […] Exudate volume was calculated from the dilution of the phenol red injected, determined spectrophotometrically (560 nm) and cellular content estimated with a DNA assay [[…]. and Wollenberger A. Anal. Biochem. 77, 464-470, 1977]. This test is used to indicate anti-inflammatory activity against carrageenin-induced pleurisy in the rat.

A further assay has as its system SRS-A release. The assay is described as follows: Rat passive peritoneal anaphylaxis (PPA), SRS-A release (Method D). It counts as in vivo. The note with it: final concentration of 2×10^-4 M, intraperitoneal. The source says: Rat passive peritoneal anaphylaxis (PPA) The method is essentially similar to that described previously by Ross et al (Ross, Janet W., Smith, H. and Spicer, Barbara A. Increased vascular permeability during passive peritoneal anaphylaxis in the rat. Int. Arch. Allergy appl. Innum. 51, 226, 1976.) Charles River Sprague Dawley male rats of 225-275 g and Dunkin Hartley male white guinea pigs of 300-700 g were used. Charles River Sprague Dawley male rats of 225-275 g were given intraperitoneal injections of 0.5 ml of either Bordetella pertussis vaccine (4×10^10 organisms/ml; Burroughs Wellcome, London) or Pertussis vaccine absorbed (not less than 41.u. B. pertussis antigen with aluminium hydroxide; The Lister Institute Elstree, England), and subcutaneous injections of 0.5 ml of an emulsion of 100 mg of ovalbumin (chicken egg albumin; crystallised and lyophilised, grade V, Sigma, London) in 2 ml of isotonic saline and 3 ml of incomplete Freund's adjuvant. The rats were bled by cardiac puncture, under ether anaesthesia,on day 18, the blood was pooled and the serum separated, stored at -20° C. and thawed only once before use. The serum produced 72 hour passive cutaneous anaphylaxis activity in recipient rats to a dilution of 1:64 which was decreased to a dilution of less than 1:2 by heating at 56° C. for 4 hours. Rats were given intraperitoneal injections of 2 ml of a 1:5 dilution of the rat anti-serum in isotonic saline. Two hours later 0.3 ml of 5% solution of Pontamine Sky Blue (Raymond A. Lamb, London) in isotonic saline was injected intraveneously, followed by an intraperitoneal injection of the test compound in 1 ml of saline; (control rats received 1 ml of saline); followed 2.5 minutes later by an intraperitoneal injection of 5 ml of a Tyrode solution containing 50 μg/ml heparin and 0.4 mg/ml of ovalbumin. The concentrations of the compounds were quoted as that in the 6 ml of fluid injected intraperitoneally. […]

Counter-ions that a name gives are not always drawn.

With `Cc1ccc(O)c2[nH]c(Cc3ccccc3)nc12` [Example 1, 2-Benzyl-4-hydroxy-7-methylbenzimidazole], the “anti-rheumatic activity: inhibition of the development of arthritis in the rat adjuvant arthritis model” value in assay [1] is “active”. The “percentage inhibition (5-lipoxygenase; formation of 5-HETE and 5,12-diHETE)” value in the assay with 5-lipoxygenase enzyme (0.5 μM concentration, p<0.01) came out at 36.0 percentage; in the assay with 5-lipoxygenase enzyme (5 μM concentration, p<0.001), 78.1 percentage.
As to `Cc1ccc(Cc2nc3c(C)ccc(O)c3[nH]2)cc1` [Example 10, 2-(4'-Methylbenzyl)-4-hydroxy-7-methylbenzimidazole], in assay [2] (25 mg/kg (p.o.)), the “anti-inflammatory activity against carrageenin-induced pleurisy” value (“anti-inflammatory activity” for short) is “active”.
On to `COc1ccc(Cc2nc3c(C)ccc(O)c3[nH]2)cc1.Cl` [Example 12, 2-(4'-Methoxybenzyl)-4-hydroxy-7-methylbenzimidazole hydrochloride], for which, in assay [2] (25 mg/kg (p.o.)), the “anti-inflammatory activity” value is reported as “active”. The “% inhibition of SRS-A release compared to controls” value (“% inhibition of SRS-A release” for short) with SRS-A release was 58%.
Turning to `Cc1ccc(O)c2[nH]c(CCCCCC(=O)O)nc12` [Example 18, 6-(4-Hydroxy-7-methyl-benzimidazol-2-yl)-hexanoic acid hydrochloride hydrate (3:3:1)], the “anti-inflammatory activity” value in assay [2] (12 mg/kg (i.p)) is reported as “active”.
As for `COc1cc(Cc2nc3c(C)ccc(O)c3[nH]2)cc(OC)c1OC.Cl` [Example 25, 2-(3',4',5'-Trimethoxybenzyl)-4-hydroxy-7-methylbenzimidazole hydrochloride], in the assay with SRS-A release, the “% inhibition of SRS-A release” value is 59%.
Consider `COc1ccc(Cc2nc3c(C)ccc(O)c3[nH]2)cc1OC.Cl` [Example 26, 2-(3',4'-Dimethoxybenzyl)-4-hydroxy-7-methylbenzimidazole hydrochloride], for which the “% inhibition of SRS-A release” value with SRS-A release was found to be 55%.
